# In patent publication US20160220602A1, “USE OF CHINESE MEDICINE PREPARATION IN PREPARING DRUG FOR PREVENTING AND/OR TREATING CROHN'S DISEASE” (TASLY PHARMACEUTICAL GROUP CO., LTD., priority 2013, published 2016):
# Tests used:
# Format in all cases: in vivo, SD rats
# [1] = tested on: IFN-γ; experiment: Serum IFN-γ by ELISA, OXZ model rats; conditions: 100 mg/kg once per day, 11 days
# Method: (§1) Grouping: the experiment was carried out by using two ways of intracolonic and intragastric administration. […] There were 10 rats each group. Method for establishing rat model: referring to the Heller method, OXZ was used to induce the SD rat Crohn's disease model (abbreviated as “OXZ model”). Neck and back skin of rats were shaved (2 cm×2 cm). Ethanol was used to prepare 5% (w/v) OXZ solution, and 0.3 ml resultant OXZ solution was dripped on the skin of rats. After the solution was air-dried naturally, skin allergy occurred in rats. The sensitized rats were adaptively raised for 5 days, […] anesthetized by intraperitoneal injection of pentobarbital sodium. […] After completion, the rats were inverted by lifting tails for 60s to make the solution totally absorbed. […] If the rats manifested dark hair color, body weight loss, poor appetite, lassitude, watery stool or diarrhea, the model establishment was success. Administration method: after successful model establishment by OXZ, the drug was given to rats. The TCM preparation k saline solutions at corresponding dose were administered to the groups of preparation k of all doses and the […] saline solution, a positive drug, administrated to the positive control group. […] Serum IFN-γ, IL-4, and Gln in intestinal mucosa were determined by ELISA in rats.
# [2] = tested on: IL-4; experiment: Serum IL-4 by ELISA, OXZ model rats; conditions: 100 mg/kg once per day, 11 days
# Method: as §1
# [3] = tested on: TNBS-induced SD rat Crohn's disease model; experiment: Colon gross damage and histopathological score, TNBS model rats; conditions: 100 mg/kg
# Method: Grouping: experiment was carried out by using two ways of intracolonic and intragastric administrations. […] There were 10 rats each group. Method for establishing rat model: referring to Morris method, TNBS was used to induce the SD rat Crohn's disease model (abbreviated as “TNBS model”). 24 hours before modeling, the SD rats were fasted but water was given. […] The rats of blank control group were normally fed with free access to water and the same volume of normal saline was given in the same administration routes by referring to the dosage regime of aforementioned treatment groups. The rats of model group were administrated with the same volume of normal saline in the same administration routes. […] (3) Pathological indices: the colon of rats was taken out. The gross colon tissue damage was scored, subsequently examined and scored histopathologically by conventional HE staining. […] [table]
compound,measurement,setting,value
"Nc1ccc(O)c(C(=O)O)c1 [mesalamine, Mesalamine]",IFN-γ serum content (Mean ± SD),[1]; intracolonic,85.85 ± 10.66 pg/mL
same,IFN-γ serum content (Mean ± SD),[1]; intragastric,81.88 ± 18.00 pg/mL
same,IL-4 serum content (Mean ± SD),[2]; intracolonic,86.63 ± 11.20 pg/mL
same,IL-4 serum content (Mean ± SD),[2]; intragastric,86.86 ± 7.84 pg/mL
same,Gross damage score (Mean ± SD),[3]; intracolonic,0.500 ± 0.707
same,Histopathological score (Mean ± SD),[3]; intracolonic,1.00 ± 1.10
same,Gross damage score (Mean ± SD),[3]; intragastric,0.556 ± 0.527
same,Histopathological score (Mean ± SD),[3]; intragastric,0.83 ± 0.41
